Results as given in patent publication US20250324973A1, “Pest Control Composition and Control Method” (priority 2021, published 2025).

Key:
Assay type in all cases: in vivo
[1] = system: small brown planthopper, susceptible line or reduced susceptible line; assay: Test Example 20: spray on rice seedlings, mortality rate; details: small brown planthopper 3rd-instar larvae on rice; 0.05-200 ppm; six days
Method: Natural pyrethrin or MX is formulated according to the method described in the Formulation Example 1. Similarly, flupyradifuron and flupyrimin are formulated according to the method described in the Formulation Example 1, respectively. Each of the above formulations is diluted with water containing 0.05% by volume of a spreading agent (product name: Shindain (registered trademark)) so that the concentration of active ingredient may be 0.05 ppm, 0.2 ppm, 0.8 ppm, 3.1 ppm, 12.5 ppm, 50 ppm or 200 ppm. Admire water dispersible granule (Active ingredient: imidacloprid, manufactured by Bayer CropScience K.K.), TREBON emulsifiable concentrate (Active ingredient: etofenprox, manufactured by Mitsui Chemicals Agro, Inc.), PRINCE flowable (Active ingredient: fipronil, manufactured by BASF Japan Ltd.), KIRAPPU flowable (Active ingredient: ethiprole, manufactured by Bayer CropScience K.K.), and APPLAUD flowable (Active ingredient: buprofezin, manufactured by NIHON NOHYAKU CO., LTD), which are commercial products, are diluted with water containing 0.05% by volume of a spreading agent (product name: Shindain (registered trademark)), respectively so that the concentration of active ingredient may be 0.05 ppm, 0.2 ppm, 0.8 ppm, 3.1 ppm, 12.5 ppm, 50 ppm or 200 ppm. The resulting dilution is sprayed to seedlings (at the 2.5-leaf stage) of rice (Oryza sativa) planted in a container at a rate of 10 ml/seedling. After that, 20 3rd-instar larvae of small brown planthopper of a susceptible line (a line that have been bred successively in Health & Crop Sciences Research Laboratory of Sumitomo Chemical Co., Ltd.) or small brown planthopper of a reduced susceptible line (a line that have been bred successively without selection after collecting in Nagasaki prefecture in 2016) are released thereto. Six days later, the number of surviving insects is observed, and a mortality rate of insect is calculated by the formula 2). On the other hand, rice is cultivated in the same way as in the treated plot, except that the dilution containing natural pyrethrin or MX is not sprayed (this is referred to as an untreated plot).

[2] = system: diamondback moth, susceptible line or reduced susceptible line; assay: Test Example 19: spray on cabbage seedlings, mortality rate; details: diamondback moth 3rd-instar larvae on cabbage; 0.05-200 ppm; five days
Method: Natural pyrethrin or MX is formulated according to the method described in the Formulation Example 1. Each of the above formulations is diluted with water containing 0.05% by volume of a spreading agent (product name: Shindain (registered trademark)) so that the concentration of active ingredient may be 0.05 ppm, 0.2 ppm, 0.8 ppm, 3.1 ppm, 12.5 ppm, 50 ppm or 200 ppm. Phoenix water dispersible granule (Active ingredient: flubendiamide, manufactured by NIHON NOHYAKU CO., LTD), PREVATHON flowable 5 (Active ingredient: chlorantraniliprole, manufactured by Nissan Chemical Corporation) and BENEVIA OD (Active ingredient: cyantraniliprole, manufactured by KUMIAI CHEMICAL INDUSTRY CO., LTD.), which are commercial products, are diluted with water containing 0.05% by volume of a spreading agent (product name: Shindain (registered trademark)), respectively so that the concentration of active ingredient may be 0.05 ppm, 0.2 ppm, 0.8 ppm, 3.1 ppm, 12.5 ppm, 50 ppm or 200 ppm. The resulting dilution is sprayed to seedlings (at the 3rd to 4th true leaf unfolding stage) of cabbage (Brassicae oleracea) planted in a container at a rate of 20 ml/seedling. After that, 10 3rd-instar larvae of diamondback moth of a susceptible line (a line that have been bred successively in Health & Crop Sciences Research Laboratory of Sumitomo Chemical Co., Ltd.) or diamondback moth of a reduced susceptible line (a line that have been bred successively without selection after collecting in Kumamoto prefecture in 2016) are released thereto. Five days later, the number of surviving insects is counted, and a mortality rate of insect is calculated by formula 3). On the other hand, cabbages are cultivated in the same way as in the treated plot, except that the dilution containing natural pyrethrin or MX is not sprayed (this is referred to as an untreated plot).

[3] = system: white-backed planthopper, susceptible line or reduced susceptible line; assay: Test Example 21: spray on rice seedlings, mortality rate; details: white-backed planthopper 3rd-instar larvae on rice; 0.05-200 ppm; six days
Method: Natural pyrethrin or MX is formulated according to the method described in the Formulation Example 1. Each of the above formulations is diluted with water containing 0.05% by volume of a spreading agent (product name: Shindain (registered trademark)) so that the concentration of active ingredient may be 0.05 ppm, 0.2 ppm, 0.8 ppm, 3.1 ppm, 12.5 ppm, 50 ppm or 200 ppm. PRINCE flowable (Active ingredient: fipronil, manufactured by BASF Japan Ltd.) and KIRAPPU flowable (Active ingredient: ethiprole, manufactured by Bayer CropScience K.K.), which are commercial products, are diluted with water containing 0.05% by volume of a spreading agent (product name: Shindain (registered trademark)), respectively so that the concentration of active ingredient may be 0.05 ppm, 0.2 ppm, 0.8 ppm, 3.1 ppm, 12.5 ppm, 50 ppm or 200 ppm. The resulting dilution is sprayed to seedlings (at the 2.5-leaf stage) of rice planted in a container at a rate of 10 ml/seedling. […] Six days later, the number of surviving insects is observed, and a mortality rate of insect is calculated by the formula 2). […]

[4] = system: brown planthopper, susceptible line or reduced susceptible line; assay: Test Example 18: spray on rice seedlings, mortality rate; details: brown planthopper 3rd-instar larvae on rice; 0.05-200 ppm; six days
Method: Natural pyrethrin or MX is formulated according to the method described in the Formulation Example 1. Similarly, flupyradifuron and flupyrimin are formulated according to the method described in the Formulation Example 4, respectively. Each of the above formulations is diluted with water containing 0.05% by volume of a spreading agent (product name: Shindain (registered trademark)) so that the concentration of active ingredient may be 0.05 ppm, 0.2 ppm, 0.8 ppm, 3.1 ppm, 12.5 ppm, 50 ppm or 200 ppm. Admire wettable powder (Active ingredient: imidacloprid, manufactured by Bayer CropScience K.K.), which is a commercial product, is diluted with water containing 0.05% by volume of a spreading agent (product name: Shindain (registered trademark)) so that the concentration of active ingredient may be 0.05 ppm, 0.2 ppm, 0.8 ppm, 3.1 ppm, 12.5 ppm, 50 ppm or 200 ppm. The resulting dilution is sprayed to seedlings (at the 2.5-leaf stage) of rice (Oryza sativa) planted in a container at a rate of 10 ml/seedling. After that, 20 3rd-instar larvae of brown planthopper of a susceptible line (a line that have been bred successively in Health & Crop Sciences Research Laboratory of Sumitomo Chemical Co., Ltd.) or brown planthopper of a reduced susceptible line (a line that have been bred successively without selection after collecting in Nagasaki prefecture in 2016) are released thereto. Six days later, the number of surviving insects is observed, and a mortality rate of insect is calculated by formula 2). On the other hand, rice is cultivated in the same way as in the treated plot, except that the dilution containing natural pyrethrin or MX is not sprayed (this is referred to as an untreated plot).

[5] = system: cotton aphids, susceptible line or reduced susceptible line; assay: Test Example 17: spray on cucumber seedlings, control value; details: 0.05-200 ppm, 10 ml/seedling, six days after spraying
Excerpt: Natural pyrethrin or MX is formulated according to the method described in the Formulation Example 1. Similarly, triflumezopyrim, flupyradifuron, or flupyrimin is formulated according to the method described in the Formulation Example 1, respectively. Each dilution is obtained by diluting each of the above formulations with water containing 0.05% by volume of a spreading agent (product name: Shindain (registered trademark)) so that the concentration of active ingredient may be 0.05 ppm, 0.2 ppm, 0.8 ppm, 3.1 ppm, 12.5 ppm, 50 ppm or 200 ppm. Each dilution is obtained by diluting Admire wettable powder (Active ingredient: imidacloprid, manufactured by Bayer CropScience K.K.) and Actara water dispersible granule (Active ingredient: thiamethoxam, manufactured by Syngenta Japan K.K.), which are commercial products, with water containing 0.05% by volume of a spreading agent (product name: Shindain (registered trademark)) so that the concentration of active ingredient may be 0.05 ppm, 0.2 ppm, 0.8 ppm, 3.1 ppm, 12.5 ppm, 50 ppm or 200 ppm. Cucumber seedlings (at the second true leaf unfolding stage) planted in a container are inoculated with 30 cotton aphids (including all growth stages) which are a susceptible line (a line that have been bred successively in Health & Crop Sciences Research Laboratory of Sumitomo Chemical Co., Ltd.) or a reduced susceptible line (a line that have been bred successively without selection after collecting in Miyazaki prefecture in 2016). One day later, the resulting dilution is sprayed to the seedlings at a rate of 10 ml/seedling. On the other hand, cucumbers are cultivated in the same way as in the treated plot, except that the dilution containing natural pyrethrin or MX is not sprayed (this is referred to as an untreated plot). Six days after spraying, the number of surviving insects is observed, and a control value is calculated by formula 1).
Letters in the formula have the following meanings • Cb: The number of insects tested in the untreated plot • Cai: The number of surviving insects at the time of observation in the untreated plot • Tb: The number of tested insects in the treated plot • Tai: The number of surviving insects at the time of observation in the treated plot

Structure (SMILES)	effect (mortality rate) on the reduced susceptible line compared with the susceptible line [1]	effect (control value) on the reduced susceptible line compared with the susceptible line [5]	other results
CC(C)N1C(=O)N(c2ccccc2)CS/C1=N\C(C)(C)C [buprofezin]	low compared with that on the sensitive line	–	–
CNC(=O)c1cc(Cl)cc(C)c1NC(=O)c1cc(Br)nn1-c1ncccc1Cl [chlorantraniliprole]	–	–	effect (mortality rate) on the reduced susceptible line compared with the susceptible line [2]: low compared with that on the sensitive line
CNC(=O)c1cc(C#N)cc(C)c1NC(=O)c1cc(Br)nn1-c1ncccc1Cl [cyantraniliprole]	–	–	effect (mortality rate) on the reduced susceptible line compared with the susceptible line [2]: low compared with that on the sensitive line
CC[S+]([O-])c1c(C#N)nn(-c2c(Cl)cc(C(F)(F)F)cc2Cl)c1N (centres unmarked) [ethiprole]	low compared with that on the sensitive line	–	effect (mortality rate) on the reduced susceptible line compared with the susceptible line [3]: low compared with that on the sensitive line
CCOc1ccc(C(C)(C)COCc2cccc(Oc3ccccc3)c2)cc1 [etofenprox]	low compared with that on the sensitive line	–	–
N#Cc1nn(-c2c(Cl)cc(C(F)(F)F)cc2Cl)c(N)c1[S+]([O-])C(F)(F)F (centres unmarked) [fipronil]	low compared with that on the sensitive line	–	effect (mortality rate) on the reduced susceptible line compared with the susceptible line [3]: low compared with that on the sensitive line
Cc1cc(C(F)(C(F)(F)F)C(F)(F)F)ccc1NC(=O)c1cccc(I)c1C(=O)NC(C)(C)CS(C)(=O)=O [flubendiamide]	–	–	effect (mortality rate) on the reduced susceptible line compared with the susceptible line [2]: low compared with that on the sensitive line
O=C1C=C(N(Cc2ccc(Cl)nc2)CC(F)F)CO1 [flupyradifuron]	low compared with that on the sensitive line	low compared with that on the sensitive line	effect (mortality rate) on the reduced susceptible line compared with the susceptible line [4]: low compared with that on the sensitive line
O=C(N=c1ccccn1Cc1ccc(Cl)nc1)C(F)(F)F [flupyrimin]	low compared with that on the sensitive line	low compared with that on the sensitive line	effect (mortality rate) on the reduced susceptible line compared with the susceptible line [4]: low compared with that on the sensitive line
O=[N+]([O-])NC1=NCCN1Cc1ccc(Cl)nc1 [imidacloprid]	low compared with that on the sensitive line	low compared with that on the sensitive line	effect (mortality rate) on the reduced susceptible line compared with the susceptible line [4]: low compared with that on the sensitive line
CN1COCN(Cc2cnc(Cl)s2)/C1=N\[N+](=O)[O-] [thiamethoxam]	–	low compared with that on the sensitive line	–
O=c1c(-c2cccc(C(F)(F)F)c2)c([O-])[n+](Cc2cncnc2)c2ccccn12 [triflumezopyrim]	–	low compared with that on the sensitive line	–
